Patent US11780901B2, “Analogues of parathyroid hormone (1-34) that function as agonists of the parathyroid hormone receptor-1 and display modified activity profiles” (Wisconsin Alumni Research Foundation, priority 2013, dated 2023)
Read-outs that look alike come from different tables or passages of the source. Starred links: 1 amine or outer side, 2 acyl side, 3 side chain; linkers in the order of their positions; H or OH if unused. Non-standard residues stand in square brackets, D forms with d. Residues, ends and D or L forms follow the SMILES beside them. *: point of attachment. X10 = NC(=O)CC[C@H](CN[*:1])C(=O)[*:2]; X6 = O=C(O)CC[C@H](CN[*:1])C(=O)[*:2]; X8 = NC[C@@H](CO)C(=O)*

What was measured:
PTHR1 = target: T1, PTHR1 (Homo sapiens, UniProt Q03431); test: PTHR1 activation, cAMP production (GloSensor) in HEK293 cells; assay type: cell-based; design: expressed in transfected cells; details: for PTHR1 Activation: Derivative EC50/PTH EC50: normalized to EC50 of PTH(1-34)-NH2 ([…]), cAMP production
T1 sequence (Q03431 27-593): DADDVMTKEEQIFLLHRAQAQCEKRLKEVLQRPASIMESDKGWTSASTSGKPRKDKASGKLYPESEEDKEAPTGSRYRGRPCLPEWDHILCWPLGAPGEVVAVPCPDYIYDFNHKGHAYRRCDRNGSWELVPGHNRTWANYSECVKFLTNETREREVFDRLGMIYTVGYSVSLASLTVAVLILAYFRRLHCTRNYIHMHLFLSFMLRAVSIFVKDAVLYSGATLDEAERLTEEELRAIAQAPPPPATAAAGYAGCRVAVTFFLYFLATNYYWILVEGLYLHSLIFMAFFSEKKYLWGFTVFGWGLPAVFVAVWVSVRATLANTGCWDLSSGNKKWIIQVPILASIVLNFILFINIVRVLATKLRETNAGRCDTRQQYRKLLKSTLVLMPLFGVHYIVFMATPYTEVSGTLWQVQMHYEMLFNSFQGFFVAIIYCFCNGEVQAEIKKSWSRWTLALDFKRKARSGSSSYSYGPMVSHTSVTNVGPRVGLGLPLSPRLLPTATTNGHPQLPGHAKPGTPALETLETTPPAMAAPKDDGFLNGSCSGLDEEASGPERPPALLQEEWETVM
Source text: The assays employ HEK-293 cells that have been engineered to express the appropriate receptor. GloSensor-based detection of cAMP provides a read-out of receptor activation.
(§1) For PTHR1 activation and all the binding data, data represent mean±s.e.m from three independent measurements; For PTHR2 activation, data represent mean±s.e.m from four independent measurements. Curves were fit to the data using a four-parameter sigmoidal dose-response equation.
For cAMP dose-response assays, monolayers of confluent HEK 293 cells were pre-incubated with buffer containing d-luciferin (0.5 mM) in 96 well plates at room temperature until a stable baseline level of luminescence was established (30 min). Varying concentrations of agonist were then added, and the time course of luminescence response was recorded using a Perkin Elmer plate reader following α/β-peptide addition.

PTHR2 = PTHR2 (Homo sapiens, UniProt P49190); test: PTHR2 activation, cAMP production (GloSensor) in HEK293 cells; assay type: cell-based; design: expressed in transfected cells; key to PTHR2 Activation: Derivative EC50/PTH EC50: *** denotes poor tolerance of β amino acid for PTHR2 activation; details: for EC50: HEK-293 cells, GloSensor cAMP, read-out: EC50 (nM) of PTHR2 Activation; for PTHR2 Activation: Derivative EC50/PTH EC50: normalized to EC50 of PTH(1-34)-NH2 ([…] printed), cAMP production
Source text: The assays employ HEK-293 cells that have been engineered to express the appropriate receptor. GloSensor-based detection of cAMP provides a read-out of receptor activation. […] (Carter, P. H. et al. Actions of the Small Molecule Ligands SW106 and AH-3960 on the Type-1 Parathyroid Hormone Receptor. Molecular Endocrinology 29, 307-321 (2015).)
as §1, with “FIGS. 10A and 10B depict dose-response curves of PTHR1 activation (FIG. 10A) and PTHR2 activation (FIG. 10B) in HEK293 cells stably expressing PTHR1 or PTHR2. For PTHR1” for “For PTHR1”

[1] = HEK-293 cells, GloSensor cAMP, read-out: EC50 (nM) of PTHR1 Activation

PTHR2, sequence (P49190 25-550): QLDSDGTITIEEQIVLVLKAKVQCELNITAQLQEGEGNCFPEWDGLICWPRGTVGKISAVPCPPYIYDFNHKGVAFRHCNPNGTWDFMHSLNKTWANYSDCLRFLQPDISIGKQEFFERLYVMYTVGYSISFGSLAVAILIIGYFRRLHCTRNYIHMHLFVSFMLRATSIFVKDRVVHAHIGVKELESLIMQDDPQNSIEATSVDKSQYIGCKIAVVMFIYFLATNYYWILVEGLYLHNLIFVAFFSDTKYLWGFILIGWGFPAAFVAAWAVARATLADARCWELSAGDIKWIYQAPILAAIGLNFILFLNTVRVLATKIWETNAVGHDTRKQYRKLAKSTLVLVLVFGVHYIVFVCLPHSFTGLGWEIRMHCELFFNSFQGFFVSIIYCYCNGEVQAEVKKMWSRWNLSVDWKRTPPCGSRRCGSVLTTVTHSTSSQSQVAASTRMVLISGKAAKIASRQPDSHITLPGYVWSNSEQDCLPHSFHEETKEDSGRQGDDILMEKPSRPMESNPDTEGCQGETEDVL

Structure (SMILES)	EC50 (PTHR1; [1])	EC50 (PTHR2)	PTHR1 Activation: Derivative EC50/PTH EC50 (PTHR1)	PTHR2 Activation: Derivative EC50/PTH EC50 (PTHR2)	EC50 (PTHR1; Table 8, hPTHR1, read-out: PTHR1 EC50)
CC[C@H](C)[C@H](NC(=O)[C@H](CCC(=O)O)NC(=O)[C@H](CO)NC(=O)[C@@H](NC(=O)[C@@H](CN)CO)C(C)C)C(=O)N[C@@H](CCC(N)=O)C(=O)N[C@@H](CC(C)C)C(=O)N[C@@H](CCSC)C(=O)N[C@@H](Cc1c[nH]cn1)C(=O)N[C@@H](CC(N)=O)C(=O)N[C@@H](CC(C)C)C(=O)NCC(=O)N[C@@H](CCCCN)C(=O)N[C@@H](Cc1c[nH]cn1)C(=O)N[C@@H](CC(C)C)C(=O)N[C@@H](CC(N)=O)C(=O)N[C@@H](CO)C(=O)N[C@@H](CCSC)C(=O)N[C@@H](CCC(=O)O)C(=O)N[C@@H](CCCNC(=N)N)C(=O)N[C@H](C(=O)N[C@@H](CCC(=O)O)C(=O)N[C@@H](Cc1c[nH]c2ccccc12)C(=O)N[C@@H](CC(C)C)C(=O)N[C@@H](CCCNC(=N)N)C(=O)N[C@@H](CCCCN)C(=O)N[C@@H](CCCCN)C(=O)N[C@@H](CC(C)C)C(=O)N[C@@H](CCC(N)=O)C(=O)N[C@@H](CC(=O)O)C(=O)N[C@H](C(=O)N[C@@H](Cc1c[nH]cn1)C(=O)N[C@@H](CC(N)=O)C(=O)N[C@@H](Cc1ccccc1)C(N)=O)C(C)C)C(C)C [SEQ. ID. NO: 22] (X8-VSEIQLMHNLGKHLNSMERVEWLRKKLQDVHNF-NH2)	0.35 ± 0.06 nM	5.97 ± 1.21 nM			
CC[C@H](C)[C@H](NC(=O)[C@H](CCC(=O)O)CNC(=O)[C@H](CO)NC(=O)[C@@H](NC(=O)[C@@H](N)CO)C(C)C)C(=O)N[C@@H](CCC(N)=O)C(=O)N[C@@H](CC(C)C)C(=O)N[C@@H](CCSC)C(=O)N[C@@H](Cc1c[nH]cn1)C(=O)N[C@@H](CC(N)=O)C(=O)N[C@@H](CC(C)C)C(=O)NCC(=O)N[C@@H](CCCCN)C(=O)N[C@@H](Cc1c[nH]cn1)C(=O)N[C@@H](CC(C)C)C(=O)N[C@@H](CC(N)=O)C(=O)N[C@@H](CO)C(=O)N[C@@H](CCSC)C(=O)N[C@@H](CCC(=O)O)C(=O)N[C@@H](CCCNC(=N)N)C(=O)N[C@H](C(=O)N[C@@H](CCC(=O)O)C(=O)N[C@@H](Cc1c[nH]c2ccccc12)C(=O)N[C@@H](CC(C)C)C(=O)N[C@@H](CCCNC(=N)N)C(=O)N[C@@H](CCCCN)C(=O)N[C@@H](CCCCN)C(=O)N[C@@H](CC(C)C)C(=O)N[C@@H](CCC(N)=O)C(=O)N[C@@H](CC(=O)O)C(=O)N[C@H](C(=O)N[C@@H](Cc1c[nH]cn1)C(=O)N[C@@H](CC(N)=O)C(=O)N[C@@H](Cc1ccccc1)C(N)=O)C(C)C)C(C)C [SEQ. ID. NO: 25] (H-SVS[X6]IQLMHNLGKHLNSMERVEWLRKKLQDVHNF-NH2; N-terminus assumed)	22.9 ± 1.89 nM	> 1000 nM	60.26	***	
CC[C@H](C)[C@H](NC(=O)[C@H](CCC(=O)O)NC(=O)[C@H](CO)NC(=O)[C@@H](NC(=O)[C@@H](N)CO)C(C)C)C(=O)NC[C@@H](CCC(N)=O)C(=O)N[C@@H](CC(C)C)C(=O)N[C@@H](CCSC)C(=O)N[C@@H](Cc1c[nH]cn1)C(=O)N[C@@H](CC(N)=O)C(=O)N[C@@H](CC(C)C)C(=O)NCC(=O)N[C@@H](CCCCN)C(=O)N[C@@H](Cc1c[nH]cn1)C(=O)N[C@@H](CC(C)C)C(=O)N[C@@H](CC(N)=O)C(=O)N[C@@H](CO)C(=O)N[C@@H](CCSC)C(=O)N[C@@H](CCC(=O)O)C(=O)N[C@@H](CCCNC(=N)N)C(=O)N[C@H](C(=O)N[C@@H](CCC(=O)O)C(=O)N[C@@H](Cc1c[nH]c2ccccc12)C(=O)N[C@@H](CC(C)C)C(=O)N[C@@H](CCCNC(=N)N)C(=O)N[C@@H](CCCCN)C(=O)N[C@@H](CCCCN)C(=O)N[C@@H](CC(C)C)C(=O)N[C@@H](CCC(N)=O)C(=O)N[C@@H](CC(=O)O)C(=O)N[C@H](C(=O)N[C@@H](Cc1c[nH]cn1)C(=O)N[C@@H](CC(N)=O)C(=O)N[C@@H](Cc1ccccc1)C(N)=O)C(C)C)C(C)C [SEQ. ID. NO: 27] (H-SVSEI[X10]LMHNLGKHLNSMERVEWLRKKLQDVHNF-NH2; N-terminus assumed)	7.83 ± 0.4 nM	51.9 ± 8.82 nM	20.61	59.70	
CC[C@H](C)[C@H](NC(=O)[C@H](CCC(=O)O)NC(=O)[C@H](CO)NC(=O)[C@H](CNC(=O)[C@@H](N)CO)C(C)C)C(=O)N[C@@H](CCC(N)=O)C(=O)N[C@@H](CC(C)C)C(=O)N[C@@H](CCSC)C(=O)N[C@@H](Cc1c[nH]cn1)C(=O)N[C@@H](CC(N)=O)C(=O)N[C@@H](CC(C)C)C(=O)NCC(=O)N[C@@H](CCCCN)C(=O)N[C@@H](Cc1c[nH]cn1)C(=O)N[C@@H](CC(C)C)C(=O)N[C@@H](CC(N)=O)C(=O)N[C@@H](CO)C(=O)N[C@@H](CCSC)C(=O)N[C@@H](CCC(=O)O)C(=O)N[C@@H](CCCNC(=N)N)C(=O)N[C@H](C(=O)N[C@@H](CCC(=O)O)C(=O)N[C@@H](Cc1c[nH]c2ccccc12)C(=O)N[C@@H](CC(C)C)C(=O)N[C@@H](CCCNC(=N)N)C(=O)N[C@@H](CCCCN)C(=O)N[C@@H](CCCCN)C(=O)N[C@@H](CC(C)C)C(=O)N[C@@H](CCC(N)=O)C(=O)N[C@@H](CC(=O)O)C(=O)N[C@H](C(=O)N[C@@H](Cc1c[nH]cn1)C(=O)N[C@@H](CC(N)=O)C(=O)N[C@@H](Cc1ccccc1)C(N)=O)C(C)C)C(C)C [SEQ. ID. NO: 31]	6.97 ± 1 nM	4.72 ± 1.04 nM	18.34	5.43	4.72 ± 1.04 nM
CC[C@H](C)[C@H](NC(=O)C[C@H](CCC(=O)O)NC(=O)[C@H](CO)NC(=O)[C@@H](NC(=O)[C@@H](N)CO)C(C)C)C(=O)N[C@@H](CCC(N)=O)C(=O)N[C@@H](CC(C)C)C(=O)N[C@@H](CCSC)C(=O)N[C@@H](Cc1c[nH]cn1)C(=O)N[C@@H](CC(N)=O)C(=O)N[C@@H](CC(C)C)C(=O)NCC(=O)N[C@@H](CCCCN)C(=O)N[C@@H](Cc1c[nH]cn1)C(=O)N[C@@H](CC(C)C)C(=O)N[C@@H](CC(N)=O)C(=O)N[C@@H](CO)C(=O)N[C@@H](CCSC)C(=O)N[C@@H](CCC(=O)O)C(=O)N[C@@H](CCCNC(=N)N)C(=O)N[C@H](C(=O)N[C@@H](CCC(=O)O)C(=O)N[C@@H](Cc1c[nH]c2ccccc12)C(=O)N[C@@H](CC(C)C)C(=O)N[C@@H](CCCNC(=N)N)C(=O)N[C@@H](CCCCN)C(=O)N[C@@H](CCCCN)C(=O)N[C@@H](CC(C)C)C(=O)N[C@@H](CCC(N)=O)C(=O)N[C@@H](CC(=O)O)C(=O)N[C@H](C(=O)N[C@@H](Cc1c[nH]cn1)C(=O)N[C@@H](CC(N)=O)C(=O)N[C@@H](Cc1ccccc1)C(N)=O)C(C)C)C(C)C [SEQ. ID. NO: 41]		60.1 ± 9.82 nM			
